Test results published in patent publication US20040058948A1, “Mappicine analogs, methods of inhibiting retroviral reverse transcriptase and methods of treating retroviruses” (priority 2002, published 2004).

Columns and labels:
[1] = molecular target: T1, RNA-dependent DNA polymerase activity of HIV reverse transcriptase (Human immunodeficiency virus type 1 group M subtype B, UniProt P04585); experiment: RNA-dependent DNA polymerase activity assay of HIV reverse transcriptase; type: biochemical, HIV-1; conditions: 10 μM inhibitor concentration, activity with analog / without analog x 100; for remaining activity at 10 µM: read-out: Residual activity (%) Polymerase
T1 construct: made in house
Procedure: In separate, representative assays, mappicine analogs were tested for their ability to inhibit the RNA-dependent DNA polymerase activity of HIV reverse transcriptase and for their ability to inhibit the RNase H activity of HIV reverse transcriptase. The assay for RNA-dependent DNA polymerase activity is discussed in Borkow, G. et al., “Inhibition of the Ribonuclease H and DNA Polymerase Activities of HIV-1 Reverse Transcriptase by N-(4-tert-Butylbenzoyl)-2-hydroxy-1-naphthaldehyde Hydrazone,” Biochemistry 1997, 36, 3179-3185, a copy of which is attached hereto, and the disclosure of which is incorporated herein by reference. Assays were carried out in the absence and in the presence of mappicine analogs (10 μM final concentration). The results are reported as % residual activity, which is the RNA-dependent DNA polymerase activity of the enzyme in the presence of the mappicine analog divided by the RNA-dependent activity of the enzyme in the absence of the mappicine analog, multiplied by 100.

[2] = molecular target: RNase H activity of HIV reverse transcriptase (Human immunodeficiency virus type 1 group M subtype B, UniProt P04585); experiment: Fluorescence (FRET)-based RNase H activity assay of HIV reverse transcriptase; type: biochemical, HIV-1; parameters: final concentration of 2.5 nM of the p51/p66 RT heterodimer in the assay; made in house; conditions: 10 μM inhibitor concentration, activity with analog / without analog x 100; for remaining activity at 10 µM: read-out: Residual activity (%) RNase H
Procedure: Recently, a fluorescence-based assay to perform preliminary screens in search of HIV RNase H inhibitors has been developed. The assay, which is carried out in 96-well microplates and is adaptable to robotics, is the first high-throughput screen for RNase H and is described in further detail in the Experimental section. HIV-1 RT and human RNase H were cloned, and thus comparative analysis of inhibitor action could be conducted simultaneously.
The assay for RNase H activity of HIV reverse transcriptase was the fluorescence-based assay described in detail in the Experimental section and discussed in U.S. Provisional Patent Application Serial No. 60/318,359. Assays were carried out in the absence and in the presence of mappicine analogs (10 μM final concentration). The results are reported as % residual activity, which is the RNase H activity of the enzyme in the presence of the mappicine analog divided by the RNase H activity of the enzyme in the absence of the mappicine analog, multiplied by 100. Alternatively, the results are reported as % inhibition, which is calculated as the ratio of the RNase H activity of the enzyme in the presence of the mappicine analog to the enzyme activity in the absence of the mappicine analog, multiplied by 100, and then subtracting this number from 100.
Assay for Ribonuclease H Activity Based on Fluorescence Resonance Energy Transfer (FRET)
Preparation of the Fluorophore-RNA/Quencher-DNA Hybrid Duplex Substrate.
The RNA/DNA hybrid duplex substrate for use in the assay comprises an RNA oligonucleotide of sequence 5′-GAU CUG AGC CUG GGA GCU-3′, modified at the 3′-end with Aminolink-2 and derivatized with fluorescein isothiocyanate, to provide a modified RNA oligonucleotide of the sequence 5′-GAU CUG AGC CUG GGA GCU-fluorescein-3′, annealed to a complementary DNA oligonucleotide of the sequence 5′-AGC TCC CAG GCT CAG ATC-3′ modified at the 5′-end with Aminolink-2 and derivatized with the FRET acceptor DABCYL succinimidyl ester, to provide a modified DNA oligonucleotide of the sequence 5′-DABCYL-AGC TCC CAG GCT CAG ATC-3′.
To prepare the 3′-fluorescein-RNA/5′-DABCYL-DNA hybrid duplex substrate, a known amount of 3′-fluorescein-RNA was dissolved in 20 mM Tris buffer (pH 8.0, 37° C.) to provide a final concentration of 5 μM. Two equivalents of the 5′-DABCYL-DNA oligonucleotide were added, and the mixture was heated to 90° C. for 5 min and cooled slowly to room temperature to allow duplex formation. The positioning of the fluorescein donor at the 3′-end of the RNA oligonucleotide and the DABCYL acceptor at the 5′-end of the DNA oligonucleotide provides a very close proximity of the donor and acceptor that results in a very intense quenching of the fluorescein emission in the intact RNA/DNA hybrid duplex substrate due to the spectral overlap of the fluorescence emission of fluorescein with the absorption spectrum of DABCYL. In addition, DABCYL is non-fluorescent, and thus cannot contribute any light emission. Both of these factors result in a very low background and provide a high signal-to-noise in the assay measurements. The ratio of the donor fluorescence in the absence and in the presence of its quencher is approximately fifteen-fold.
Microplate Assay Protocol for the Measurement of RNase H Activity Using the RNA/DNA Hybrid Duplex Substrate.
Reaction assay mixtures contained 5 μl of a stock solution of 2.5 μM RNA/DNA hybrid duplex substrate added to 85 μl of assay buffer (50 mM Tris, pH 8.0, 37° C., containing 60 mM KCl and 2.5 mM MgCl2), prepared in the wells of a 96-well fluorescence microtiter plate, and warmed to 37° C. using the temperature control of the SpectraMax Gemini XS microplate spectrofluorometer (Molecular Devices). Reactions were started by the addition of 5 μl of a solution of recombinant HIV-1 reverse transcriptase (usually providing a final concentration of 2.5 nM of the p51/p66 RT heterodimer in the assay), and mixing using the automatic mixing function of the microplate spectrofluorometer. […]

Structure (SMILES)	Residual activity (%) Polymerase [1] [%]	Residual activity (%) RNase H [2] [%]	also measured
Cc1ccc2nc3c(c([Si](C)(C)C)c2c1)Cn1c-3cc(C(O)C(C)(C)C)c(C)c1=O (racemic) [5Cβ]	72	80	–
Cc1c(C(O)CCC2CCCCC2)cc2n(c1=O)Cc1c-2nc2ccccc2c1-c1ccccc1 (racemic) [3Aδ]	32	104	–
CCC(O)c1cc2n(c(=O)c1C)Cc1c-2nc2ccc(OC)cc2c1-c1ccccc1 (racemic) [3Dα]	69	78	–
CCC(=O)c1cc2n(c(=O)c1C)Cc1c-2nc2ccccc2c1[Si](C)(C)C [5Aακ]	91	103	–
Cc1ccc2nc3c(c([Si](C)(C)C)c2c1)Cn1c-3cc(C(=O)C(C)(C)C)c(C)c1=O [5Cβκ]	76	92	–
CCCCCCc1c2c(nc3ccc(C)cc13)-c1cc(C(O)CCC3CCCCC3)c(C)c(=O)n1C2 (stereo not drawn) [8Cδ]	73	72	–
CCC(O)c1cc2n(c(=O)c1C)Cc1c-2nc2ccc(N)cc2c1[Si](C)(C)C (stereo not drawn) [AG 3M, 2-Amino-7-(1-hydroxypropyl)-8-methyl-12-trimethylsilanyl-11H-indolizino[1,2-b]quinolin-9-one]	–	–	remaining activity at 10 µM [1]: 123%; remaining activity at 10 µM [2]: 63%
CCCCCCc1c2c(nc3ccc(C)cc13)-c1cc(C(O)C(C)(C)C)c(C)c(=O)n1C2 (racemic) [8Cβ]	111	93	–
Cc1c(C(O)Cc2ccccc2)cc2n(c1=O)Cc1c-2nc2ccccc2c1[Si](C)(C)C (racemic) [5Aε]	54	93	–
CCC(O)c1cc2n(c(=O)c1C)Cc1c-2nc2ccccc2c1[Si](C)(C)C(C)(C)C (racemic) [4Aα]	67	104	–
Cc1c(C(=O)CCC2CCCCC2)cc2n(c1=O)Cc1c-2nc2ccccc2c1[Si](C)(C)C [5Aδκ]	90	75	–
COc1ccc2nc3c(c([Si](C)(C)C)c2c1)Cn1c-3cc(C(O)Cc2ccccc2)c(C)c1=O (racemic) [5Dε]	48	70	–
Cc1c(C(O)Cc2ccccc2)cc2n(c1=O)Cc1c-2nc2ccc(F)cc2c1-c1ccccc1 (racemic) [3Bε]	28	91	–
CCCCCCc1c2c(nc3ccc(OC)cc13)-c1cc(C(O)C(C)(C)C)c(C)c(=O)n1C2 (racemic) [8Dβ]	68	67	–
CCc1c2c(nc3ccc(O)cc13)-c1cc(C(O)CC)c(C)c(=O)n1C2 (stereo not drawn) [AG 8M, 12-Ethyl-2-hydroxy-7-(1-hydroxypropyl)-8-methyl-11H-indolizino[1,2-b]quinolin-9-one]	–	–	remaining activity at 10 µM [1]: 69%; remaining activity at 10 µM [2]: 87%
COc1ccc2nc3c(c(-c4ccccc4)c2c1)Cn1c-3cc(C(O)Cc2ccccc2)c(C)c1=O (racemic) [3Dε]	61	79	–
CCC(O)c1cc2n(c(=O)c1C)Cc1c-2nc2ccccc2c1-c1ccccc1 (racemic) [3Aα]	90	97	–

Structure (SMILES)	Residual activity (%) Polymerase [1] [%]	Residual activity (%) RNase H [2] [%]	also measured
Cc1c(C(O)CCC2CCCCC2)cc2n(c1=O)Cc1c-2nc2ccc(F)cc2c1-c1ccccc1 (racemic) [3Bδ]	81	99	–
COc1ccc2nc3c(c(-c4ccccc4)c2c1)Cn1c-3cc(C(O)CCC2CCCCC2)c(C)c1=O (racemic) [3Dδ]	60	67	–
Cc1c(C(=O)C(C)(C)C)cc2n(c1=O)Cc1c-2nc2ccccc2c1-c1ccccc1 [3Aβκ]	64	94	–
CCC(=O)c1cc2n(c(=O)c1C)Cc1c-2nc2ccc(OC)cc2c1[Si](C)(C)C(C)(C)C [4Dακ]	80	77	–
CCC(=O)c1cc2n(c(=O)c1C)Cc1c-2nc2ccc(C)cc2c1[Si](C)(C)C [5Cακ]	93	109	–
Cc1c(C(=O)C(C)(C)C)cc2n(c1=O)Cc1c-2nc2ccccc2c1[Si](C)(C)C(C)(C)C [4Aβκ]	79	70	–
Cc1c(C(=O)C(C)(C)C)cc2n(c1=O)Cc1c-2nc2ccc(F)cc2c1-c1ccccc1 [3Bβκ]	61	95	–
CCC(O)c1cc2n(c(=O)c1C)Cc1c-2nc2ccc(F)cc2c1[Si](C)(C)C(C)(C)C (racemic) [4Bα]	98	108	–
CCc1c2c(nc3ccc(NC(=O)OC(C)(C)C)cc13)-c1cc(C(O)CC)c(C)c(=O)n1C2 (stereo not drawn) [AG 5M, 2-tert-Butyloxycarbonylamino-12-ethyl-7-(1-hydroxypropyl)-8-methyl-11H-indolizino[1,2-b]quinolin-9-one]	–	–	remaining activity at 10 µM [1]: 87%; remaining activity at 10 µM [2]: 68%
CCCCCCc1c2c(nc3ccccc13)-c1cc(C(=O)C(C)(C)C)c(C)c(=O)n1C2 [8Aβκ]	76	96	–
COc1ccc2nc3c(c([Si](C)(C)C(C)(C)C)c2c1)Cn1c-3cc(C(O)C(C)(C)C)c(C)c1=O (racemic) [4Dβ]	47	91	–
CCC(O)c1cc2n(c(=O)c1C)Cc1c-2nc2ccccc2c1[Si](C)(C)C (stereo not drawn) [5Aα]	–	–	Residual activity (%) Polymerase ([1]; 10 µM): 32%; Residual activity (%) RNase H ([2]; 10 µM): 93%
CCCCCCc1c2c(nc3ccc(C)cc13)-c1cc(C(=O)C(C)(C)C)c(C)c(=O)n1C2 [8Cβκ]	66	95	–
Cc1ccc2nc3c(c([Si](C)(C)C(C)(C)C)c2c1)Cn1c-3cc(C(O)C(C)(C)C)c(C)c1=O (stereo not drawn) [4Cβ]	67	94	–
COc1ccc2nc3c(c([Si](C)(C)C)c2c1)Cn1c-3cc(C(=O)CCC2CCCCC2)c(C)c1=O [5Dδκ]	40	92	–
CCCCCCc1c2c(nc3ccc(F)cc13)-c1cc(C(O)Cc3ccccc3)c(C)c(=O)n1C2 (racemic) [8Bε]	92	84	–
